According to ChEMBL document CHEMBL3091384, “Chemical probes to study ADP-ribosylation: synthesis and biochemical evaluation of inhibitors of the human ADP-ribosyltransferase ARTD3/PARP3” (J Med Chem, 2013):

How the values were obtained:
[1] = biological target: T1, Protein mono-ADP-ribosyltransferase PARP3 (Homo sapiens) (UniProt Q9Y6F1)
T1 sequence (whole entry): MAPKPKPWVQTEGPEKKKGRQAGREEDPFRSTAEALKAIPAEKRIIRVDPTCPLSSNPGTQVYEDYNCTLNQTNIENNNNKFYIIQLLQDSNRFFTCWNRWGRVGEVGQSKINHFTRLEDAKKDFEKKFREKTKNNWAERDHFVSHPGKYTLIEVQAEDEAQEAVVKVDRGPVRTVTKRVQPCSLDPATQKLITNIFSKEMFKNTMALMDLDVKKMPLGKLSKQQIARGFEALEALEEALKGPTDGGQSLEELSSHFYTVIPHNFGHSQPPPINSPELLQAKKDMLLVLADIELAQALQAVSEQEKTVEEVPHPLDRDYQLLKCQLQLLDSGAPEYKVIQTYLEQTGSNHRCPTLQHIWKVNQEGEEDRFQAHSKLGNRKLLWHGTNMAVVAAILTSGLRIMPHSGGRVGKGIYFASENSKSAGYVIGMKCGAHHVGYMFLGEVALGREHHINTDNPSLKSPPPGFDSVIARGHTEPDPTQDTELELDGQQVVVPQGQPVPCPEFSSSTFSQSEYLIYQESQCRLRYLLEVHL

[2] = system: Poly [ADP-ribose] polymerase 14, ARTD8/PARP14 (Homo sapiens)
[3] = biological target: Poly [ADP-ribose] polymerase 2 (Homo sapiens) (UniProt Q9UGN5)
Poly [ADP-ribose] polymerase 2 (Homo sapiens), sequence (Q9UGN5 whole entry): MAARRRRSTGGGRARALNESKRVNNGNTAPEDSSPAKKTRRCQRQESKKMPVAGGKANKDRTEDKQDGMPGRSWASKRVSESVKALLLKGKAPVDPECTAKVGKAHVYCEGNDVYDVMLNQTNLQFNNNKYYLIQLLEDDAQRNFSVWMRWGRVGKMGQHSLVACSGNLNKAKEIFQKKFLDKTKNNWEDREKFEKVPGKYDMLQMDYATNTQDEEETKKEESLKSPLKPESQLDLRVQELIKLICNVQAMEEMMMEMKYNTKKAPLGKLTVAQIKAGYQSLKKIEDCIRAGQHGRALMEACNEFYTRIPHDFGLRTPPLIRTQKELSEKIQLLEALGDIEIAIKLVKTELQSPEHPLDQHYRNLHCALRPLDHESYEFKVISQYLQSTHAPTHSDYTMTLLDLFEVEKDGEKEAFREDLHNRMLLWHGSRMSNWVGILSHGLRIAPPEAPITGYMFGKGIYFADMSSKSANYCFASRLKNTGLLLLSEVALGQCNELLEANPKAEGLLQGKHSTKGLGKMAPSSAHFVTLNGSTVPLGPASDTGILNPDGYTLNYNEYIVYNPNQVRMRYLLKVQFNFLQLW

[4] = species on record: Homo sapiens; assay: Binding affinity to […] (unknown origin) assessed as change in melting temperature by thermal stabilization assay
[5] = biological target: Poly [ADP-ribose] polymerase 1 (Homo sapiens, UniProt P09874)
Poly [ADP-ribose] polymerase 1, sequence (P09874 whole entry): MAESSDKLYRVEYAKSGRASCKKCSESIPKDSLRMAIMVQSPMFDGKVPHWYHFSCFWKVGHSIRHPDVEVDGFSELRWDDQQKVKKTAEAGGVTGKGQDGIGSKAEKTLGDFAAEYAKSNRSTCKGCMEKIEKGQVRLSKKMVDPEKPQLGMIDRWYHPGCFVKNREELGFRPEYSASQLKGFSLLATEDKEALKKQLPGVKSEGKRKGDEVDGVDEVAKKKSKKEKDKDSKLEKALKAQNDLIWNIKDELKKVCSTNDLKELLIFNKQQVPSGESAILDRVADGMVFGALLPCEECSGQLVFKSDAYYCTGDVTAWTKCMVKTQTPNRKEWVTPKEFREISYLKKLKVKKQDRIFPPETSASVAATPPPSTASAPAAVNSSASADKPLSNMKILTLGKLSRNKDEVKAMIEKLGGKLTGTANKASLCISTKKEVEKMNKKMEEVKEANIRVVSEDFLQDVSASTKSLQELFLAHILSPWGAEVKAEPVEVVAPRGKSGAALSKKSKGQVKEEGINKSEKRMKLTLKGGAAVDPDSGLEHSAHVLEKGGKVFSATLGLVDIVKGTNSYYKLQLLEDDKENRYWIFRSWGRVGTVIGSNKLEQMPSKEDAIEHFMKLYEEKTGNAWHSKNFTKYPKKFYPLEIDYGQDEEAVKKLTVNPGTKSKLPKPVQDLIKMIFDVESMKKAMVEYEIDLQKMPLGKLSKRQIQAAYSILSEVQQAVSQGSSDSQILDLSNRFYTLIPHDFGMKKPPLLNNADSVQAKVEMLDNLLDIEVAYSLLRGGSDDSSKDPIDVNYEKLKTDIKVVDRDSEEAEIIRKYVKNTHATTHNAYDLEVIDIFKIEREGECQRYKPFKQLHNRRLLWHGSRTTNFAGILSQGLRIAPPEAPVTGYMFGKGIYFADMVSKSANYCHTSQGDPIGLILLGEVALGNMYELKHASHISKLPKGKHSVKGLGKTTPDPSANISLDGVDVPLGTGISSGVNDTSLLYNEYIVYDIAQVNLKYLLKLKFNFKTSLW

Row | Compound | ΔTm [1] [°C] | ΔTm [2] [°C] | ΔTm [3] [°C] | ΔTm [4] [°C] | ΔTm [5] [°C]
1 | O=C(CCc1nc2ccccc2c(=O)[nH]1)N1CCc2ccccc2C1 | 4.73 | -0.07 | -0.17 | 0.14 | 1.15
2 | O=C(CCc1nc2ccccc2c(=O)[nH]1)NC(c1ccc(Cl)cc1)C1CC1 (racemic) | 0.45 | -0.28 | 0.77 | 0.52 | 2.17
3 | C[C@H](NC(=O)CCc1nc2ccccc2c(=O)[nH]1)c1ccc(Cl)cc1 | 0.12 | 0.04 | -0.59 | 0.18 | 0.04
4 | O=C(/C=C/c1nc2ccccc2c(=O)[nH]1)N[C@H](CO)Cc1ccccc1 | 6.25 | -0.7 | -0.17 | 0.08 | 0.41
5 | O=C(CCc1nc2ccccc2c(=O)[nH]1)NC1CCCc2ccccc21 (stereo unspecified) | 2.28 | 0.24 | 1.11 | 1.83 | 2.44
6 | Cc1ccc(C)c(C(C)NC(=O)CCc2nc3ccccc3c(=O)[nH]2)c1 (racemic) | 3.07 | 0.57 | 0.87 | 0.44 | 2
7 | C[C@H](NC(=O)NCc1nc2ccccc2c(=O)[nH]1)c1ccccc1 | 4.95 | -0.77 | 0.33 | 0.39 | 0.88
8 | C[C@H](NC(=O)CCc1nc2ccccc2c(=O)[nH]1)c1cccc(F)c1 | 0.75 | -0.18 | 0.06 | 0.13 | 1
9 | C[C@@H](NC(=O)CCc1nc2cc(Cl)ccc2c(=O)[nH]1)c1ccccc1 | 0.16 | 0.05 | 1.28 | 0.43 | 0.92
10 | O=C(CCCc1nc2ccccc2c(=O)[nH]1)N[C@@H]1CCc2ccccc21 | 3.46 | 0.13 | 2.29 | 1.2 | 1.52
11 | O=C(CCc1nc2ccccc2c(=O)[nH]1)NCc1ccccc1Cl | 5.39 | 0.26 | 1.64 | 0.48 | 1.85
12 | O=C(CCc1nc2ccccc2c(=O)[nH]1)NCc1ccc(OC(F)F)cc1 | 0.78 | 0.31 | 1.35 | 0.96 | 3.39
13 | C[C@@H](NC(=O)Cc1nc2ccccc2c(=O)[nH]1)c1ccccc1 | 0.63 | -0.04 | -0.25 | 0.05 | 0.37
14 | O=C(CCc1nc2cc(Cl)ccc2c(=O)[nH]1)N[C@H](CO)c1ccccc1 | 0.5 | -0.25 | 0.98 | 0.36 | 0.76
15 | O=C(CCc1nc2cc(Cl)ccc2c(=O)[nH]1)NC(c1ccccc1)c1ccccc1 | 0.35 | 0.82 | 0.83 | 0.2 | 0.11
16 | CC(NC(=O)CCc1nc2ccccc2c(=O)[nH]1)c1ccc(-n2ccnc2)cc1 (racemic) | – | – | – | 0.64 | –
17 | C[C@H](NC(=O)CCc1nc2ccccc2c(=O)[nH]1)c1cccc(Cl)c1 | 0.2 | -0.1 | -0.48 | 0.29 | 0.26

Row | Compound | ΔTm [1] [°C] | ΔTm [2] [°C] | ΔTm [3] [°C] | ΔTm [4] [°C] | ΔTm [5] [°C]
18 | C[C@H](NC(=O)CCc1nc2ccccc2c(=O)[nH]1)c1cccc(C(F)(F)F)c1 | 0.69 | -0.37 | -0.6 | 0.23 | 0.25
19 | O=C(CCc1nc2ccccc2c(=O)[nH]1)NC(c1ccccc1)c1ccccc1 | 0.2 | 0.45 | 0.3 | 0.22 | 0.2
20 | O=C(CCc1nc2ccccc2c(=O)[nH]1)NCc1ccc([N+](=O)[O-])cc1 | 3.29 | -0.11 | 0.53 | 0.97 | 4
21 | Cc1ccc([C@H](C)NC(=O)CCc2nc3ccccc3c(=O)[nH]2)cc1C | 0.74 | -0.22 | -0.47 | 0.22 | 0.22
22 | CC(NC(=O)CCc1nc2ccccc2c(=O)[nH]1)c1ccncc1 (racemic) | 5.02 | 0 | 1.82 | 0.3 | 2.68
23 | O=C(CCc1nc(O)c2ccccc2n1)NCc1ccccn1 | 4.83 | – | 1.48 | 0.15 | 1.93
24 | CC[C@@H](CO)NC(=O)CCc1nc2ccccc2c(=O)[nH]1 | – | – | – | 0.35 | –
25 | C[C@@H](CO)NC(=O)CCc1nc2ccccc2c(=O)[nH]1 | – | – | – | 0.56 | –
26 | O=C(CCc1nc2ccccc2c(=O)[nH]1)NCc1ccc(F)cc1 | 4.2 | 0.69 | 1.37 | 0.69 | 3.11
27 | O=C(CCCc1nc2ccccc2c(=O)[nH]1)NC(c1ccccc1)c1ccccc1 | 0.09 | 0.02 | 0.53 | 0.41 | 0.44
28 | COc1ccccc1CNC(=O)CCc1nc(O)c2ccccc2n1 | 2.96 | – | 1.14 | 0.54 | 1.45
29 | CC(NC(=O)CCc1nc2ccccc2c(=O)[nH]1)c1ccc(S(N)(=O)=O)cc1 (racemic) | – | – | – | 1.94 | –
30 | O=C(CCCc1nc2ccccc2c(=O)[nH]1)N[C@H]1CCc2ccccc21 | 4.69 | -0.18 | 1.27 | 0.59 | 1.88
31 | C[C@H](NC(=O)/C=C/c1nc2ccccc2c(=O)[nH]1)c1ccccc1 | 0.22 | -0.07 | -0.67 | 0.42 | 1.22
32 | O=C(NCc1ccccc1)NCc1nc2ccccc2c(=O)[nH]1 | 2.91 | -1.05 | -0.23 | 0.34 | 0.65
33 | C[C@H](NC(=O)Cc1nc2ccccc2c(=O)[nH]1)c1ccccc1 | 0.43 | 0.04 | -0.01 | 0.01 | 0.31

More lines, now with the values ahead:

Row | ΔTm [1] [°C] | ΔTm [2] [°C] | ΔTm [3] [°C] | ΔTm [4] [°C] | ΔTm [5] [°C] | Compound
34 | – | – | – | 0.6 | – | O=C(CCc1nc2ccccc2c(=O)[nH]1)N[C@H](CO)Cc1ccccc1
35 | 5.71 | 0.13 | 0.98 | 0.07 | 1.93 | CCC(=O)[C@H](Cc1ccccc1)NC(=O)CCc1nc2ccccc2c(=O)[nH]1
36 | 1.36 | -0.37 | -0.32 | 0.22 | 0.24 | O=C(CCc1nc2ccccc2c(=O)[nH]1)N[C@@H](Cc1ccccc1)C(=O)O
37 | 5.96 | 0.16 | 0.74 | 0.44 | 0.9 | CC(C)(C)CC(NC(=O)CCc1nc2ccccc2c(=O)[nH]1)c1ccccc1 (racemic)
38 | 4.58 | -0.21 | 0.37 | 0.52 | 1.51 | C[C@H](NC(=O)CCCc1nc2ccccc2c(=O)[nH]1)c1ccccc1
39 | 0.42 | 0.12 | -0.46 | 0.12 | 0.36 | C[C@H](NC(=O)CCc1nc2ccccc2c(=O)[nH]1)c1ccccc1F
40 | 6.31 | -0.27 | 1.3 | 0.7 | 2.79 | O=C(CCc1nc2ccccc2c(=O)[nH]1)NCc1ccccc1O
41 | 5.94 | 0.32 | 0.33 | 0.11 | 1.37 | CON(C)C(=O)[C@H](Cc1ccccc1)NC(=O)CCc1nc2ccccc2c(=O)[nH]1
42 | – | – | – | 0.13 | – | C[C@H](NC(=O)CCc1nc2ccccc2c(=O)[nH]1)c1ccccn1
43 | – | – | – | 0.5 | – | COC(=O)[C@H](Cc1ccccc1)NC(=O)CCc1nc2ccccc2c(=O)[nH]1
44 | – | – | – | 0.33 | – | CC[C@H](NC(=O)CCc1nc2ccccc2c(=O)[nH]1)c1ccccc1
45 | – | – | – | 0 | – | CC(NC(=O)CCc1nc2ccccc2c(=O)[nH]1)c1ccccn1 (racemic)
46 | 2.63 | -0.28 | 1.77 | 0.32 | 2.16 | O=C(CCc1nc2ccccc2c(=O)[nH]1)NCc1ccccc1
47 | 3.22 | 0.53 | 1.84 | 1.05 | 2.9 | O=C(CCCc1nc2ccccc2c(=O)[nH]1)N[C@H](CO)c1ccccc1
48 | – | – | – | 0.12 | – | C[C@@H](NC(=O)CCc1nc2ccccc2c(=O)[nH]1)c1ccccn1
49 | 4.27 | -0.05 | 0.21 | 1.37 | 1.56 | C[C@@H](NC(=O)CCCc1nc2ccccc2c(=O)[nH]1)c1ccccc1
50 | – | – | – | 0.35 | – | C[C@@H](NC(=O)CCc1nc2ccccc2c(=O)[nH]1)c1ccccc1
51 | 6.23 | 0.2 | 1.57 | 0.49 | 2.83 | O=C(CCc1nc2ccccc2c(=O)[nH]1)NCCc1ccccc1
52 | – | – | – | 0.13 | – | C[C@H](NC(=O)CCc1nc2ccccc2c(=O)[nH]1)c1ccccc1
53 | – | – | – | 1.08 | – | NC(=O)[C@H](Cc1ccccc1)NC(=O)CCc1nc2ccccc2c(=O)[nH]1
54 | 3.57 | 0.38 | 1.64 | 0.82 | 2.83 | O=C(CCc1nc2ccccc2c(=O)[nH]1)N[C@H](CO)c1ccccc1
